{"source": "paper PMC10467108", "about": "“Of Seven New K^+ Channel Inhibitor Peptides of Centruroides bonito, α-KTx 2.24 Has a Picomolar Affinity for Kv1.2” (Toxins, 2023)", "key": {"hKv1.1": {"target": "T1, hKv1.1 (Homo sapiens, UniProt Q09470)", "T1 construct": "host or cells: CHO cells, transient transfection (Lipofectamine 2000)", "T1 sequence (Q09470 whole entry)": "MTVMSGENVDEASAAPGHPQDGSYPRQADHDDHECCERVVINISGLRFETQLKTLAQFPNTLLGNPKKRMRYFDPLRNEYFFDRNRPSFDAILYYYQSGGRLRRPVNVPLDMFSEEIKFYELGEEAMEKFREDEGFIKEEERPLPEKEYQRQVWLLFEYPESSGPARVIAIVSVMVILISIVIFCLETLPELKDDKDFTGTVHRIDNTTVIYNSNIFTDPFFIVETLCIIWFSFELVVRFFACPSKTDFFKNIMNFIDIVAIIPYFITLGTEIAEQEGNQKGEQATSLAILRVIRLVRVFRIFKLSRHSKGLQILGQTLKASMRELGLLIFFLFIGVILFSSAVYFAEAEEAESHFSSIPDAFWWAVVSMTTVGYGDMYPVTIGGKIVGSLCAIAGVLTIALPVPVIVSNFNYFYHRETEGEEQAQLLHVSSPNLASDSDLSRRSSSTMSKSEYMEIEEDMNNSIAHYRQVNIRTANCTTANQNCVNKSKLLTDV", "assay": "Whole-cell patch-clamp of Kv1.1 currents in transiently transfected CHO cells", "type": "cell-based", "conditions": "for effect on Kv1.1 currents: 100 nM toxin; for Kd: this study, screened at 100 nM, read-out: Kd Values Kv1.1 (symbol)", "procedure": "(§1) Macroscopic Kv1.1 and Kv1.2 currents were measured in transiently transfected CHO cells. For Kv1.3 current recording, human T lymphocytes were activated by Phytohemagglutinin A (PHA) to increase Kv1.3 channel expression, and micro-pipettes were filled with Ca^2+-free solution to prevent KCa3.1 channel activation. K^+ currents were evoked by applying 15-ms-long depolarization pulses to +50 mV from a holding potential of −120 mV except for Kv1.2, as it has highly variable activation kinetics; therefore, 15–500 ms-long pulses were applied to maximize the open probability of Kv1.2 channel. CboK peptide toxins were dissolved in a freshly prepared extracellular solution and applied to the whole-cell patch-clamped cells using a micro perfusion system at 200 μL/min flow rate.\n(§2) CHO cells were transiently transfected by using Lipofectamine 2000 kit (Invitrogen, Carlsbad, CA, USA), as per the manufacturer’s protocol with vector pCMV6-AC-GFP (cat# RG211000 and RC222200; OriGene Technologies, Rockville, MD, USA) encoding hKv1.1 (hKCNA1 gene) or hKv1.2 (hKCNA2 gene) ion channels. Cells were grown under standard conditions in an incubator at 37 °C and 5% CO2 for 24 h. GFP-positive transfected cells were identified by utilizing a Nikon TMS fluorescence microscope (Nikon, Tokyo, Japan) using bandpass filters of 455–495 nm and 515–555 nm for excitation and emission, respectively.\n(§3) The patch-clamp technique was used for measuring whole-cell currents in voltage-clamped mode using standard protocols. Electrophysiological recordings were acquired by using Multiclamp 700B amplifier connected to a personnel computer with an Axon Digidata1440 digitizer (Molecular Devices, Sunnyvale, CA, USA). Pipettes were pulled from GC150F-15 borosilicate capillaries (Harvard Apparatus, Kent, UK) having 3−5 MΩ tip resistance in the bath solution. All current recordings were carried out at room temperature (20−25 °C) and only those currents were recorded and subjected to analyses when the leak current at holding potential was <5% of peak current at the test potential. Current traces were lowpass-filtered by utilizing the built-in analog four-pole Bessel filters of the amplifiers and were sampled at 20 kHz which is at least twice the filter cut-off frequency. A gravity-driven perfusion system was used to perfuse the cells with control and test solutions and excess fluid was removed continuously through vacuum suction. The extracellular solution (bath solution) contained 145 mM NaCl, 5.5 mM glucose, 5 mM KCl, 2.5 mM CaCl2, 1 mM MgCl2, and 10 mM HEPES, having pH of 7.35 and an osmolarity between 302 and 308 mOsM/L. Toxins were dissolved in bath solution at different molar concentrations and supplemented with 0.1 mg/mL of bovine serum albumin BSA (Sigma-Aldrich, Budapest, Hungary). The intracellular solution (pipette filling) was comprised of 140 mM KF, 2 mM MgCl2, 1 mM CaCl2, 10 mM HEPES, and 11 mM EGTA, with a pH of 7.22 and an osmolarity of ~295 mOsM/L.\n(§4) Generally, to evoke the Kv1.xcurrents, 15-ms-long depolarization pulses to +50 mV from a holding potential of −120 mV were applied, and the current traces were recorded after every 15 s. However, in the case of Kv1.2, due to its variable activation kinetics, the duration of the depolarization pulse was set between 15 and 500 ms to attain the saturated peak current."}, "hKv1.2": {"target": "T2, hKv1.2 (Homo sapiens, UniProt P16389)", "T2 construct": "GFP (C); host or cells: CHO cells, transient transfection (Lipofectamine 2000)", "T2 sequence (P16389 whole entry)": "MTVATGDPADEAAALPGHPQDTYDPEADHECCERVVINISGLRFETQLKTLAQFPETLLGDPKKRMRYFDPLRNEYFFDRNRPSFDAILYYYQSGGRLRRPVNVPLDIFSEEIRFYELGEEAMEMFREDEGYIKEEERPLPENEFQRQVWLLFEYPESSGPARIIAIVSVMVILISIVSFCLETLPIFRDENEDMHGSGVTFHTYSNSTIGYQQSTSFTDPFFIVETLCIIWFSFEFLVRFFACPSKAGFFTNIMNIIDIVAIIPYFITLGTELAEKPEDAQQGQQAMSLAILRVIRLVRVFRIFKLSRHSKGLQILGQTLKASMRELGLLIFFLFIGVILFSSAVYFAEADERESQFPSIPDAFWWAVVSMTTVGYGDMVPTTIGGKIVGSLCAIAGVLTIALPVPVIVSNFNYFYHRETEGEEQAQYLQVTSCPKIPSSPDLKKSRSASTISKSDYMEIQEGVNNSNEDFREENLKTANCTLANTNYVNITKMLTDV", "assay": "Whole-cell patch-clamp of Kv1.2 currents in transiently transfected CHO cells", "type": "cell-based", "conditions": "for Kd / Hill coefficient H, Kv1.2 block: Hill fit of RCF vs toxin concentration, n ≥ 3; for Kd: cumulative application, pulses to +50 mV from -120 mV, read-out: Kd for Kv1.2", "procedure": "as §1, §2, §3, §4"}, "Kv1.3 [1]": {"target": "T3, Kv1.3 (Homo sapiens, UniProt P22001)", "T3 construct": "endogenous in cells", "T3 sequence (P22001 whole entry)": "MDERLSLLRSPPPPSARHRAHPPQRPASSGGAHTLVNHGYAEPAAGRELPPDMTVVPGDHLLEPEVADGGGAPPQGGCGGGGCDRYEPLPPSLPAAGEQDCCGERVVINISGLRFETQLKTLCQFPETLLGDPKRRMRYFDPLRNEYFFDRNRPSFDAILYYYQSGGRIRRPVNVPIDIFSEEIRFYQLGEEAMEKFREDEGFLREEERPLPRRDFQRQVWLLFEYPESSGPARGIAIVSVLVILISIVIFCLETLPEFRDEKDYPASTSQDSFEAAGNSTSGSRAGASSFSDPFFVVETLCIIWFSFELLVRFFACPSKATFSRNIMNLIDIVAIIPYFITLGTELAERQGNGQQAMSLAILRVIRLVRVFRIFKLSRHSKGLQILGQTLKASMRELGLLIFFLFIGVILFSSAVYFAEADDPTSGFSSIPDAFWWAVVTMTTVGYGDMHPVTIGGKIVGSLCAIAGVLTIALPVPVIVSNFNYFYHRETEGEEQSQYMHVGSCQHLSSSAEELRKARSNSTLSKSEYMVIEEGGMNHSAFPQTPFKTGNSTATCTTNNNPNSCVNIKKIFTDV", "assay": "Whole-cell patch-clamp of Kv1.3 currents in PHA-activated human T lymphocytes", "type": "cell-based", "procedure": "as §1\nIsochronal RCF data points obtained this way (isochronal RCF = I4ms/I4ms,0 where I4ms,0 and I4ms are the currents at 4 ms time point in the absence and presence of CboK peptides, respectively) at different toxin concentrations were fitted with the Hill equation to obtain concentration–response curves as shown in Figure 6H.\nHuman peripheral venous blood was acquired from anonymous healthy volunteers from the blood bank. Blood samples were collected by having approval from the Ethical Committee of the Hungarian Medical Research Council (36255-6/2017/EKU). PBMCs were separated by Histopaque 1077 (Sigma-Aldrich, Budapest, Hungary) separation technique, and isolated cells, at the density of 5 × 10^5 cells, were cultured in RPMI 1640 media (Gibco, Grand Island, NY, USA) supplemented with 10% FBS (Sigma-Aldrich, Budapest, Hungary), 2 mM L-glutamine, […], and […] penicillin in a humidified incubator at 37 °C and 5% CO2 for 3–6 days. A measure of 2, 5, or 10 μg/mL of Phytohemagglutinin A (PHA) (Sigma-Aldrich, Budapest, Hungary) was added in cultured cells to activate the PBMCs and upregulate the Kv1.3 expression.\nas §3, with “suction.” for “suction. The extracellular solution (bath solution) contained 145 mM NaCl, 5.5 mM glucose, 5 mM KCl, 2.5 mM CaCl2, 1 mM MgCl2, and 10 mM HEPES, having pH of 7.35 and an osmolarity between 302 and 308 mOsM/L. Toxins were dissolved in bath solution at different molar concentrations and supplemented with 0.1 mg/mL of bovine serum albumin BSA (Sigma-Aldrich, Budapest, Hungary). The intracellular solution (pipette filling) was comprised of 140 mM KF, 2 mM MgCl2, 1 mM CaCl2, 10 mM HEPES, and 11 mM EGTA, with a pH of 7.22 and an osmolarity of ~295 mOsM/L.”"}, "Kv1.1": {"target": "Kv1.1", "design": "method as in 3 sources, ref 40 (CoTx1), 32 (CoTx2) ||| ref 33 = [33]; PMID 26921461; doi:10.1016/j.toxicon.2016.02.017; 33. Olamendi-Portugal T. Bartok A. Zamudio-Zuñiga F. Balajthy A. Becerril B. Panyi G. Possani L.D. Isolation, chemical and functional characterization of several new K+-channel blocking peptides from ||| ref 33 (II-x toxins), 40 (CoTx1)", "conditions": "no reference given; read-out: Kd for Kv1.1 (positive control concentration equivalent to Kd); cited from earlier work"}, "Kv1.3 [2]": {"target": "Kv1.3", "conditions": "no reference given; read-out: Kd for Kv1.3 (positive control concentration equivalent to Kd); cited from earlier work"}, "Kv1.2": {"target": "Kv1.2", "design": "method as in 7 sources, ref 40 (CoTx1), 33 (II-x toxins), 45, 46 (Maurotoxin) ||| ref 32 (CoTx2), 33 (II-10.9), 34 (Ce3) ||| ref 33 (II-x toxins), 47, 48 (Pi4) ||| ref 33 (II-10.4), 32 (CoTx2) ||| ref 33 = [33]; PMID 26921461; doi:10.1016/j.toxicon.2016.02.017; 33. Olamendi-Portugal T. Bartok A. Zamudio-Zuñiga F. Balajthy A. Becerril B. Panyi G. Possani L.D. Isolation, chemical and functional characterization of several new K+-channel blocking peptides from ||| ...", "conditions": "cited from earlier work", "procedure": "Macroscopic Kv1.1 and Kv1.2 currents were measured in transiently transfected CHO cells."}, "Kv1.2 (Homo sapiens)": {"target": "Kv1.2 (Homo sapiens) (UniProt P16389)", "sequence (P16389 whole entry)": "as the sequence (P16389 whole entry) above", "conditions": "cited from earlier work"}}, "note": "Like-named read-outs stand apart in the source and are kept apart here. Where a SMILES comes first, the peptide text is derived from it. Bridges are numbered along the chain shown (N, C = ends)."}
{"molecule": "CC[C@H](C)[C@H](N)C(=O)N[C@@H](Cc1ccccc1)C(=O)N[C@H](C(=O)N[C@@H](CC(N)=O)C(=O)N[C@H](C(=O)N[C@@H](CCCCN)C(=O)N[C@H]1CSSC[C@@H]2NC(=O)[C@H](CCCCN)NC(=O)CNC(=O)CNC(=O)[C@H](C)NC(=O)[C@H](Cc3c[nH]cn3)NC(=O)[C@H](CCC(N)=O)NC(=O)CNC(=O)[C@H](Cc3ccccc3)NC(=O)[C@H](CCCNC(=N)N)NC(=O)[C@H](CC(=O)O)NC(=O)[C@H](CCCCN)NC(=O)[C@@H]3CSSC[C@@H](C(=O)N[C@@H](Cc4ccc(O)cc4)C(=O)N4CCC[C@H]4C(=O)O)NC(=O)[C@H](CCCCN)NC(=O)[C@H](CSSC[C@H](NC(=O)[C@H](CCC(N)=O)NC(=O)[C@H](CCC(N)=O)NC(=O)[C@@H]4CCCN4C(=O)[C@H](CC(C)C)NC(=O)[C@H](CO)NC1=O)C(=O)N[C@@H](CC(C)C)C(=O)N[C@@H](CCCNC(=N)N)C(=O)N1CCC[C@H]1C(=O)N3)NC(=O)[C@H](CCCCN)NC(=O)CNC(=O)[C@H](CC(N)=O)NC(=O)[C@H]([C@@H](C)CC)NC2=O)C(C)C)[C@@H](C)CC", "note": "[CboK5] (H-IFINVKCSLPQQCLRPCKDRFGQHAGGKCINGKCKCYP-OH; disulfide 7-29, 13-34, 17-36 (inferred); N-terminus and C-terminus assumed)", "values": [{"measurement": "effect on Kv1.1 currents", "setting": "hKv1.1", "result": "did not inhibit"}, {"measurement": "Kd", "setting": "hKv1.1", "result": "> 0.1", "unit": "µM"}, {"measurement": "inhibition of Kv1.2 current, representative traces", "setting": "hKv1.2; 1 nM toxin, steady-state block, representative cell (Figure 4B, 5A)", "result": "~ 75%"}, {"measurement": "reversibility of Kv1.2 block", "setting": "hKv1.2; 1 nM toxin, wash with toxin-free control solution", "result": "completely reversed"}, {"measurement": "Kd", "setting": "hKv1.2; equilibrium block", "result": 0.000376, "unit": "µM"}, {"measurement": "Hill coefficient H, Kv1.2 block", "setting": "hKv1.2", "result": 1.2}, {"measurement": "Kd", "setting": "Kv1.3 [1]; approximate, concentration-response data not obtained for CboK5, read-out: Kd for Kv1.3 (CboK5)", "result": 0.126, "unit": "µM"}]}
{"molecule": "CC[C@H](C)[C@@H]1NC(=O)[C@@H]2CSSC[C@H](NC(=O)[C@H](CCCCN)NC(=O)[C@@H](NC(=O)[C@H](CC(N)=O)NC(=O)[C@@H](NC(=O)[C@@H](NC(=O)[C@@H](N)[C@@H](C)O)[C@@H](C)O)[C@@H](C)CC)C(C)C)C(=O)N[C@@H](CO)C(=O)N[C@@H](CC(C)C)C(=O)N3CCC[C@H]3C(=O)N[C@@H](CCC(N)=O)C(=O)N[C@@H](CCC(N)=O)C(=O)N[C@H]3CSSC[C@H](NC(=O)[C@H](CCCCN)NC(=O)CNC(=O)[C@H](CC(N)=O)NC1=O)C(=O)N[C@@H](CCCCN)C(=O)N[C@H](C(=O)N[C@@H](Cc1ccc(O)cc1)C(=O)N1CCC[C@H]1C(=O)O)CSSC[C@H](NC(=O)[C@@H]1CCCN1C(=O)[C@H](CCCNC(=N)N)NC(=O)[C@H](CC(C)C)NC3=O)C(=O)N[C@@H](CCCCN)C(=O)N[C@@H](CC(=O)O)C(=O)N[C@@H](CCCNC(=N)N)C(=O)N[C@@H](Cc1ccccc1)C(=O)NCC(=O)N[C@@H](CCC(N)=O)C(=O)N[C@@H](Cc1c[nH]cn1)C(=O)N[C@@H](C)C(=O)NCC(=O)NCC(=O)N[C@@H](CCCCN)C(=O)N2", "note": "[CboK6] (H-TTINVKCSLPQQCLRPCKDRFGQHAGGKCINGKCKCYP-OH; disulfide 7-29, 13-34, 17-36 (inferred); N-terminus and C-terminus assumed)", "values": [{"measurement": "effect on Kv1.1 currents", "setting": "hKv1.1", "result": "does not block"}, {"measurement": "Kd", "setting": "hKv1.1", "result": "> 0.1", "unit": "µM"}, {"measurement": "Kd", "setting": "hKv1.2; equilibrium block", "result": 0.000585, "unit": "µM"}, {"measurement": "Hill coefficient H, Kv1.2 block", "setting": "hKv1.2", "result": 1.3}, {"measurement": "Hill coefficient H, Kv1.3 block", "setting": "Kv1.3 [1]; Hill fit of isochronal RCF (4 ms), n ≥ 3", "result": 0.77}, {"measurement": "Kd", "setting": "Kv1.3 [1]; Hill fit of isochronal RCF (current at 4 ms), 15-ms pulses to +50 mV from -120 mV, n ≥ 3, read-out: Kd for Kv1.3", "result": 0.16, "unit": "µM"}]}
{"molecule": "CC[N+](CC)(CC)CC", "note": "[TEA, tetraethylammonium, reference compound]", "values": [{"measurement": "reduction in Kv1.1 current by positive control", "setting": "hKv1.1; 0.3 mM TEA, equilibrium block", "result": "Approximately 50%"}, {"measurement": "Kd", "setting": "Kv1.1", "result": 300, "unit": "µM"}, {"measurement": "Kd", "setting": "Kv1.3 [2]", "result": 10000, "unit": "µM"}, {"measurement": "reduction in Kv1.3 current by positive control", "setting": "Kv1.3 [1]; 10 mM TEA, equilibrium block", "result": "Approximately 50%"}]}
{"molecule": "Charybdotoxin [ChTx, reference compound]", "values": [{"measurement": "reduction in Kv1.2 current by positive control", "setting": "hKv1.2; 14 nM ChTx, equilibrium block", "result": "Approximately 50%"}, {"measurement": "Kd", "setting": "Kv1.2; no reference given, read-out: Kd for Kv1.2 (positive control concentration equivalent to Kd)", "result": 0.014, "unit": "µM"}]}
{"molecule": "CoTx1 (from UniProt O46028)", "values": [{"measurement": "Kd", "setting": "Kv1.2 (Homo sapiens)", "result": 0.027, "unit": "µM"}]}
{"molecule": "Maurotoxin", "values": [{"measurement": "selectivity for Kv1.2 over Kv1.1, literature", "setting": "Kv1.2; 46 (Maurotoxin), 40 (CoTx1)", "result": "~ 56 fold"}, {"measurement": "selectivity for Kv1.2 over Kv1.3, literature", "setting": "Kv1.2; 46 (Maurotoxin), 40 (CoTx1)", "result": 225, "unit": "fold"}, {"measurement": "Kd", "setting": "Kv1.2; ref 40 (CoTx1), 33 (II-x toxins), 45, 46 (Maurotoxin), read-out: Kd for Kv1.2, literature", "result": 0.0008, "unit": "µM"}]}
